Molecules are shown by their SMILES. ≈ marks a conversion by molar mass, not a printed value.

A short description of data set [1]: MRT in CD-1 mouse at 10 mg/kg, po measured upto 8 hrs by LC-MS/MS analysis. It is filed as ADME, organism-based. The following applies: in vivo.
The nature of data set [2]: Metabolic stability in rat liver microsome assessed as half life. It is filed as ADME. The following applies: liver microsomes. In general terms: Microsomes from liver hold many membrane-bound enzymes, among them those of drug oxidation.
The target of data set [3] is T1, P-gp (ABCB1) (Homo sapiens, UniProt P08183). The experiment in a line: Inhibition of P-gp in human Caco-2 cells at 10 uM in presence of paclitaxel relative to control. It is filed as cell-based. To be noted: Caco-2, probe paclitaxel.
T1 sequence (P08183 whole entry): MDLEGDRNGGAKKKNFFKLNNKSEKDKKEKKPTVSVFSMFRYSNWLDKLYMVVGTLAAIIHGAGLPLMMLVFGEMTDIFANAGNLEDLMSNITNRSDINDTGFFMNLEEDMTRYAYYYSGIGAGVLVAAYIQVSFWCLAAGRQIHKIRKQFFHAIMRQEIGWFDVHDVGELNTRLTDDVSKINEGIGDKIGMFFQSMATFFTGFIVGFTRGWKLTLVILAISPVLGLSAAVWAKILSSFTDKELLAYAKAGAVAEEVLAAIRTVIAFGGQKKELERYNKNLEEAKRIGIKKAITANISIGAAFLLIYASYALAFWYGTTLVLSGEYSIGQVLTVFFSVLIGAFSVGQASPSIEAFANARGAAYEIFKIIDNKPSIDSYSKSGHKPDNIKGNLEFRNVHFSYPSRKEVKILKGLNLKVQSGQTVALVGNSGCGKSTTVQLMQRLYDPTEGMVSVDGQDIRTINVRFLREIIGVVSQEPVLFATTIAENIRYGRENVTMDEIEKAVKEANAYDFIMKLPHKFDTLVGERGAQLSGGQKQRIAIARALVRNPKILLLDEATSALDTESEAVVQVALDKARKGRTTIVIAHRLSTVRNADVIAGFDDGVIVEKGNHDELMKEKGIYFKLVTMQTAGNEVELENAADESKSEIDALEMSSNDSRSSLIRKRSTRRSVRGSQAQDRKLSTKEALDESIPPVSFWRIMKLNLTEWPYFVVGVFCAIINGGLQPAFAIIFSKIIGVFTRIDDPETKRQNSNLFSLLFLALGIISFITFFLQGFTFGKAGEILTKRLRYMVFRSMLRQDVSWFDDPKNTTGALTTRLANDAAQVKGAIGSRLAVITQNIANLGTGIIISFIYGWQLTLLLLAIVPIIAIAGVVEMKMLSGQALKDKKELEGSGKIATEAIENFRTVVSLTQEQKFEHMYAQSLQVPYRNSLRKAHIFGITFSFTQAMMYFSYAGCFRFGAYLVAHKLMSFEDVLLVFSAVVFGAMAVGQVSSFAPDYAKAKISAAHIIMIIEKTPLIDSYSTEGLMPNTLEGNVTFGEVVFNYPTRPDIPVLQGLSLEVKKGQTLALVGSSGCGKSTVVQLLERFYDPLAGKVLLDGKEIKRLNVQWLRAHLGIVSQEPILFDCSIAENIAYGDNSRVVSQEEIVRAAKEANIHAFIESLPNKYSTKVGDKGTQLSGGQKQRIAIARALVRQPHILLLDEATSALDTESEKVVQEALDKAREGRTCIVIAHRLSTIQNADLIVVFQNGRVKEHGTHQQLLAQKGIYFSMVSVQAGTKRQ
Data set [4] in a line: Metabolic stability in mouse liver microsome assessed as half life. It is filed as ADME. To be noted: liver microsomes.
Data set [5] has as its target T2, ATP-dependent translocase ABCB1 (Homo sapiens, UniProt P08183). The data set can be described thus: Inhibition of P-gp in human Caco-2 cells in presence of paclitaxel. It is filed as cell-based.
Data set [6] is described as follows: Equilibrium solubility of compound in PBS at pH 7.4. To be noted: PBS. It is filed as physicochemical.
Data set [7] is described as follows: Inhibition of MRP1 (unknown origin) ATPase activity. Also noted: species or system Homo sapiens.
Data set [8] in a line: Metabolic stability in rat liver microsome assessed as intrinsic clearance. It is filed as ADME. The following applies: microsomes.
Data set [9] concerns the target T1, P-gp (ABCB1). The experiment in a line: Inhibition of P-gp in human Caco-2 cells at 5 uM in presence of paclitaxel relative to control. It is filed as cell-based. To be noted: Caco-2, probe paclitaxel.
In data set [10] the target is T3, Broad substrate specificity ATP-binding cassette transporter ABCG2 (Homo sapiens, UniProt Q9UNQ0).
T3 sequence (Q9UNQ0 whole entry): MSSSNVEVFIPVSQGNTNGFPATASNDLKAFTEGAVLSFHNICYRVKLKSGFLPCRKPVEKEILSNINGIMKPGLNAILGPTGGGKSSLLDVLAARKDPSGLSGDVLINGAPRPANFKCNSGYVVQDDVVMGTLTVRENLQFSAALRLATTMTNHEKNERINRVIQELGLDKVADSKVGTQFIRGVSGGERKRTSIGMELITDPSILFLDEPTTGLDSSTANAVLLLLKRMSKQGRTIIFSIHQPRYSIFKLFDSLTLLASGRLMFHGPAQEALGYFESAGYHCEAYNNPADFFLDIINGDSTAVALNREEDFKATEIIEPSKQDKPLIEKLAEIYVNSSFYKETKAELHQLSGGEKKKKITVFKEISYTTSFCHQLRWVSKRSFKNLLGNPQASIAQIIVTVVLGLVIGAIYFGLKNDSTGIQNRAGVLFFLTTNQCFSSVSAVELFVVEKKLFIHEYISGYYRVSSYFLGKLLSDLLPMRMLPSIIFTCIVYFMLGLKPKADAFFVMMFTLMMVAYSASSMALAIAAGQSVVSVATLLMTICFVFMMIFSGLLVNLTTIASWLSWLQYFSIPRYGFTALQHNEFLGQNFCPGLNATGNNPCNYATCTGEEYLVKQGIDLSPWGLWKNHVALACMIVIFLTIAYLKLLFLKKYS
The experiment in a line: Inhibition of BCRP (unknown origin) ATPase activity.

Data set [11] is described as follows: Metabolic stability in human liver microsome assessed as half life. The following applies: liver microsomes. It is filed as ADME.
Data set [12] deals with ATP-binding cassette sub-family C member 2 (Homo sapiens, UniProt Q92887). The data set can be described thus: Inhibition of MRP2 (unknown origin) ATPase activity.
Sequence of ATP-binding cassette sub-family C member 2 (Q92887 whole entry): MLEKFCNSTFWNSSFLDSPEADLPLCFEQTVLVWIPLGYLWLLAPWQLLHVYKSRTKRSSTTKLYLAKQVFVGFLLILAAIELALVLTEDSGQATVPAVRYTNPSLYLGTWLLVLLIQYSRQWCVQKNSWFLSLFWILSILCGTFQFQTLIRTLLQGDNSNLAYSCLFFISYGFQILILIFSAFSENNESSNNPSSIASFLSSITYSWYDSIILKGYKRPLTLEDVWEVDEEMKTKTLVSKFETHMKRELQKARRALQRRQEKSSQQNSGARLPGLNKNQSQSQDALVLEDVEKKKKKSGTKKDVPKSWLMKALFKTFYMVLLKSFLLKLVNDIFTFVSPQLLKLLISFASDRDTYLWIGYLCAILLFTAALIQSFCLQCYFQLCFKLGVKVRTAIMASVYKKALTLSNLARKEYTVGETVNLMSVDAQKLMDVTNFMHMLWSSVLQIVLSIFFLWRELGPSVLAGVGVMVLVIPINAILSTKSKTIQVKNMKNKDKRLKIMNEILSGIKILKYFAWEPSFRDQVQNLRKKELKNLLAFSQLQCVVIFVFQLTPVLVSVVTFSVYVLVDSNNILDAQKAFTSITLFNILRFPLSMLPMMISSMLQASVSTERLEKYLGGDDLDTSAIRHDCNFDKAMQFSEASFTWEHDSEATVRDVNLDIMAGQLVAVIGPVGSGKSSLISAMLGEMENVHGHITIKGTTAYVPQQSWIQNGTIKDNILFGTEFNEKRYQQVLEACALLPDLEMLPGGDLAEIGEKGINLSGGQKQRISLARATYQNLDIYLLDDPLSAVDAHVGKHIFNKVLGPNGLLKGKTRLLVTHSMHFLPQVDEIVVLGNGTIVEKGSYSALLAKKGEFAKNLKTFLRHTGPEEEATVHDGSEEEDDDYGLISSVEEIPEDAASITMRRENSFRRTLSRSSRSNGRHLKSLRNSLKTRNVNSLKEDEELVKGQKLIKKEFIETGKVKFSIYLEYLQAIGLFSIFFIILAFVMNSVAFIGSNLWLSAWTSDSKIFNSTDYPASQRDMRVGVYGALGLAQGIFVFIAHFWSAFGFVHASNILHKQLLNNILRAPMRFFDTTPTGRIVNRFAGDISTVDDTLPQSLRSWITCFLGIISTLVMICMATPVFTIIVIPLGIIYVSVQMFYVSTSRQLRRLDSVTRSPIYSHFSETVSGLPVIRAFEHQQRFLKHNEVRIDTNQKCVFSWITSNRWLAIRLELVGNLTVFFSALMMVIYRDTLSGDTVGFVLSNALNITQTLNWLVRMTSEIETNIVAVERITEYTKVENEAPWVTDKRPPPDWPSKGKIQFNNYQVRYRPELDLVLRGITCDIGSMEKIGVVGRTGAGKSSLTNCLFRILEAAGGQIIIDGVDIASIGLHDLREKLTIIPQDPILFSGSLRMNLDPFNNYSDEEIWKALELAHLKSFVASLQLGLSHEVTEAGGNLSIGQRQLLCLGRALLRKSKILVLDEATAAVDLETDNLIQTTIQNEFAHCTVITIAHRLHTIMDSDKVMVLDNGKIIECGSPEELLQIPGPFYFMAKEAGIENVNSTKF
Another data set relates to MES-SA/Dx5. The data set can be described thus: Cytotoxicity against human MES-SA/Dx5 cells at 1.28 uM incubated for 3 days by MTT assay relative to control. To be noted: time 3 day. Type of data set: functional. (Formazan colour is commonly taken as a measure of viable cells.)
The nature of data set [13]: Half life in CD-1 mouse at 10 mg/kg, po measured upto 8 hrs by LC-MS/MS analysis. Type of data set: ADME, organism-based. The following applies: in vivo.
Data set [14] is described as follows: Metabolic stability in monkey liver microsome assessed as half life. The following applies: rhesus monkey, liver microsomes. It is filed as ADME, Macaca mulatta.
In data set [15] the target is T1, P-gp (ABCB1). The data set can be described thus: Inhibition of P-gp in human Caco-2 cells at 1 uM in presence of paclitaxel relative to control. Type of data set: cell-based. To be noted: Caco-2, probe paclitaxel.
The target in data set [16] is T1, P-gp (ABCB1). The data set can be described thus: Inhibition of P-gp in human Caco-2 cells at 0.01 uM in presence of paclitaxel relative to control. It is filed as cell-based. To be noted: Caco-2, probe paclitaxel.
Data set [17] can be described thus: Metabolic stability in monkey liver microsome assessed as intrinsic clearance. To be noted: rhesus monkey, microsomes. It is filed as ADME, Macaca mulatta.
The nature of data set [18]: Metabolic stability in mouse liver microsome assessed as intrinsic clearance. It is filed as ADME. The following applies: microsomes.
For data set [19], the target named is T2, ATP-dependent translocase ABCB1. The data set can be described thus: Inhibition of P-gp (unknown origin) ATPase activity.
The nature of data set [20]: Metabolic stability in human liver microsome assessed as intrinsic clearance. Type of data set: ADME. The following applies: microsomes.
Data set [21] addresses T1, P-gp (ABCB1). The data set can be described thus: Inhibition of P-gp in human Caco-2 cells at 0.1 uM in presence of paclitaxel relative to control. It is filed as cell-based. To be noted: Caco-2, probe paclitaxel.
For data set [22], the target named is T2, ATP-dependent translocase ABCB1. The experiment in a line: Inhibition of P-gp in human MES-SA/Dx5 cells. Type of data set: cell-based.
The nature of data set [23]: Apparent permeability of compound across basolateral to apical side in human Caco-2 cells. Type of data set: ADME, cell-based. A general note: Caco-2 monolayers are a common model of the intestinal barrier.
Data set [24] in a line: Tmax in Sprague-Dawley rat at 20 mg/kg, po measured upto 24 hrs by LC-MS/MS analysis. It is filed as ADME, organism-based. To be noted: in vivo.
Data set [25] can be described thus: MRT in Sprague-Dawley rat at 20 mg/kg, po measured upto 24 hrs by LC-MS/MS analysis. To be noted: in vivo. It is filed as ADME, organism-based.
A short description of data set [26]: Apparent permeability of compound across apical to basolateral side in human Caco-2 cells. Type of data set: ADME, cell-based.
Data set [27] can be described thus: Apparent permeability across apical to basolateral side in human Caco-2 cells assessed as drug recovery. To be noted: read-out: Drug recovery. It is filed as ADME, cell-based.
A short description of data set [28]: AUC (0 to t) in Sprague-Dawley rat at 20 mg/kg, po measured upto 24 hrs by LC-MS/MS analysis. Type of data set: ADME, organism-based. To be noted: in vivo.
Data set [29] can be described thus: Cmax in Sprague-Dawley rat at 20 mg/kg, po measured upto 24 hrs by LC-MS/MS analysis. The following applies: in vivo. It is filed as ADME, organism-based.
Data set [30] is described as follows: Apparent permeability across basolateral to apical side in human Caco-2 cells assessed as drug recovery. Type of data set: ADME, cell-based. The following applies: read-out: Drug recovery.

T2 sequence (P08183 whole entry): as the sequence (P08183 whole entry) above

In general, MRT refers to a mean duration of stay, worked out from the concentration-time curve. As usually defined, the half-life is the time needed for the level to fall by half in the phase considered. Broadly, the inhibition is the percentage by which the read-out fell short of the control. Usually IC50 stands for the point on the concentration scale where inhibition reaches its midpoint. The solubility (thermodynamic) is the concentration in solution at equilibrium with solid. As usually defined, the EC50 is the concentration giving half of the maximal effect. Regarding `COc1cc2c(cc1OC)CN(CCc1ccc(NC(=O)c3cc(OC)c(OC)cc3NC(=O)c3cnc4ccccc4c3)cc1)CC2`, in data set [1], the MRT was 1.26 h. In addition, the half-life in data set [2] is over 1 h; in [4], over 1 h; in data set [11], over 1 h; in [13], 1.11 h; in [14] it was 0.583 h. For the same molecule, the inhibition at 10 µM at P-gp (ABCB1) [3] amounted to 96%. The IC50 in data set [5] was 53 nM; in [7], over 10000 nM; in data set [10], 237 nM; in [12] it was over 10000 nM; in data set [19], 35 nM. The solubility (thermodynamic) in [6] was found to be 0.44 µM (≈ 0.285 µg/mL). Moreover, the CLH is under 23 µL/min/mg in [8], 39 µL/min/mg in data set [17], under 23 µL/min/mg in data set [18] and under 23 µL/min/mg in data set [20]. For the same molecule, the inhibition at 5 µM on P-gp (ABCB1) [9] turned out to be 96%. This molecule came in with an Activity in the data set with MES-SA/Dx5 of 5%. Moreover, on P-gp (ABCB1) [15], the inhibition at 1 µM is 92%. Besides, the inhibition at 0.01 µM on P-gp (ABCB1) [16] turned out to be 0%. Moreover, the inhibition at 0.1 µM on P-gp (ABCB1) [21] turned out to be 77%. In [22], the EC50 worked out at 35 nM.
Usually Papp B→A stands for how fast a substance crosses the layer from the basolateral side. The Tmax is the time from dosing to the highest level. By Papp A→B is commonly meant the apparent permeability from the apical to the basolateral side of a cell layer. What is called Cmax is the maximum level reached in the sampled fluid or tissue. Consider `CC(=O)O[C@H]1C(=O)[C@@]2(C)[C@H]([C@H](OC(=O)c3ccccc3)[C@]3(O)C[C@H](OC(=O)[C@H](O)[C@@H](NC(=O)c4ccccc4)c4ccccc4)C(C)=C1C3(C)C)[C@]1(OC(C)=O)CO[C@@H]1C[C@@H]2O` [PACLITAXEL], for which the Papp B→A in [23] amounted to 17.1 ×10⁻⁶ cm/s. Also, the time of peak concentration (Tmax) in data set [24] was 8 h. Moreover, in [25], the MRT was 5.37 h. For the same molecule, the Papp A→B in data set [26] was determined as 0.41 ×10⁻⁶ cm/s. For the same molecule, the recovery in data set [27] came out at 54%; in [30] it was 66%. Also, the AUCt in data set [28] was found to be 95.9 ng·h/mL. Further, the Cmax in [29] was determined as 14.9 ng/mL.

The record behind these values is ChEMBL document CHEMBL5523718, “Design, synthesis, molecular modeling, in vitro and in vivo biological evaluation of potent anthranilamide derivatives as dual P-glycoprotein and CYP3A4 inhibitors” (Eur J Med Chem, 2024).
